Tests used:
Assay type in all cases: in vivo
[1] = test system: ducksalad (Heteranthera limosa); experiment: Test B flooded paddy test plant response
Outline: (§1)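 Rice, umbrella sedge, ducksalad and barnyardgrass at 2-leaf stage; pots flooded to 3 cm, compounds applied into paddy water, depth held throughout. Greenhouse 13 to 15 days, then visual rating vs untreated controls on 0–100 scale (0 no effect, 100 complete control); dash means no test result.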

[2] = test system: rice (Oryza sativa); experiment: Test B flooded paddy test plant response
Outline: as §1

[3] = test system: barnyardgrass (Echinochloa crus-galli); experiment: Test B flooded paddy test plant response
Outline: as §1

[4] = test system: umbrella sedge (Cyperus difformis); experiment: Test B flooded paddy test plant response
Outline: as §1

[5] = test system: canarygrass (Phalaris minor); experiment: Test B postemergence plant response; settings: for Canarygrass plant response rating: 8 g ai/ha, postemergence, 0-100 scale; for Plant response rating, Canarygrass: Postemergence
Outline: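 Following treatment of plants 2 to 18 cm high after emergence, pots were held under glass for 13 to 15 days; efficacy was then graded visually, 100 denoting complete control and a dash no test result.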

[6] = test system: large crabgrass (Digitaria sanguinalis); experiment: Test A pre-/postemergence plant response
Outline: (§2)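 Scores reflect visual plant injury relative to untreated controls on a 0–100 scale, recorded approximately 10 days after simultaneous preemergence soil spraying and postemergence spraying of one- to two-leaf seedlings grown in loam–sand.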

[7] = test system: wheat (Triticum aestivum); experiment: Test A pre-/postemergence plant response
Outline: as §2

[8] = test system: giant foxtail (Setaria faberi); experiment: Test A pre-/postemergence plant response
Outline: as §2

[9] = test system: pigweed (Amaranthus retroflexus); experiment: Test A pre-/postemergence plant response
Outline: as §2

[10] = test system: barnyardgrass (Echinochloa crus-galli); experiment: Test A pre-/postemergence plant response
Outline: as §2

[11] = test system: corn (Zea mays); experiment: Test A pre-/postemergence plant response
Outline: as §2

[12] = Flood (flooded paddy test), 125 g ai/ha, scale 0 to 100, 0 no effect, 100 complete control
[13] = Flood, 31 g ai/ha, scale 0 to 100
[14] = Flood, 62 g ai/ha, scale 0 to 100
[15] = Flood (flooded paddy test), 250 g ai/ha, scale 0 to 100, 0 no effect, 100 complete control
[16] = 62 g ai/ha, scale 0 to 100, 0 no effect, 100 complete control
[17] = Postemergence, 31 g ai/ha, 0 to 100 scale, 0 no effect, 100 complete control
[18] = Postemergence, 125 g ai/ha, 0 to 100 scale, 0 no effect, 100 complete control
[19] = Preemergence, 31 g ai/ha, 0 to 100 scale, 0 is no effect, 100 is complete control
[20] = Preemergence, 125 g ai/ha, 0 to 100 scale (0 no effect, 100 complete control)
[21] = Flood (flooded paddy test), 62 g ai/ha, scale 0 to 100, 0 no effect, 100 complete control

## CCc1c(C)c(-c2ccc(Br)cc2)nn1-c1c(O)cnn(C)c1=O [Compound 83]
[1]; [12]
  Plant response rating, Ducksalad: 0
[1]; [13]
  Plant response rating, Ducksalad: 0
[1]; [14]
  Plant response rating, Ducksalad: 0
[2]; [12]
  Plant response rating, Rice: 0
[2]; [15]
  Plant response rating, Rice: 0
[2]; [13]
  Plant response rating, Rice: 0
[2]; [14]
  Plant response rating, Rice: 0
[3]; [12]
  Plant response rating, Barnyardgrass: 0
[3]; [15]
  Plant response rating, Barnyardgrass: 0
[3]; [13]
  Plant response rating, Barnyardgrass: 0
[3]; [14]
  Plant response rating, Barnyardgrass: 0
[4]; [12]
  Plant response rating, Sedge, Umbrella: 0
[4]; [15]
  Plant response rating, Sedge, Umbrella: 0
[4]; [13]
  Plant response rating, Sedge, Umbrella: 0
[4]; [14]
  Plant response rating, Sedge, Umbrella: 0
[5]
  Canarygrass plant response rating: 65
[5]; 31 g ai/ha, scale 0 to 100
  Plant response rating, Canarygrass: 90
[5]; [16]
  Plant response rating, Canarygrass: 90
[6]; [17]
  Plant response rating, Crabgrass, Large: 60
[6]; [18]
  Plant response rating, Crabgrass, Large: 100
[6]; [19]
  Plant response rating, Crabgrass, Large: 0
[6]; [20]
  Plant response rating, Crabgrass, Large: 70
[7]; [17]
  Plant response rating, Wheat: 0
[7]; [18]
  Plant response rating, Wheat: 60
[7]; [19]
  Plant response rating, Wheat: 0
[7]; [20]
  Plant response rating, Wheat: 30
[8]; [17]
  Plant response rating, Foxtail, Giant: 90
[8]; [18]
  Plant response rating, Foxtail, Giant: 100
[8]; [19]
  Plant response rating, Foxtail, Giant: 0
[8]; [20]
  Plant response rating, Foxtail, Giant: 100
[9]; [17]
  Plant response rating, Pigweed: 0
[9]; [18]
  Plant response rating, Pigweed: 0
[9]; [19]
  Plant response rating, Pigweed: 0
[9]; [20]
  Plant response rating, Pigweed: 30
[10]; [17]
  Plant response rating, Barnyardgrass: 100
[10]; [18]
  Plant response rating, Barnyardgrass: 100
[10]; [19]
  Plant response rating, Barnyardgrass: 20
[10]; [20]
  Plant response rating, Barnyardgrass: 100
[11]; [17]
  Plant response rating, Corn: 0
[11]; [18]
  Plant response rating, Corn: 100
[11]; [19]
  Plant response rating, Corn: 0
[11]; [20]
  Plant response rating, Corn: 40

## CCc1cc(-c2ccc(Br)cc2)nn1-c1c(O)cnn(CC(F)(F)F)c1=O [Compound 73]
[1]; [21]
  Plant response rating, Ducksalad: 0
[1]; [12]
  Plant response rating, Ducksalad: 0
[1]; [15]
  Plant response rating, Ducksalad: 0
[1]; [13]
  Plant response rating, Ducksalad: 0
[2]; [21]
  Plant response rating, Rice: 0
[2]; [12]
  Plant response rating, Rice: 0
[2]; [15]
  Plant response rating, Rice: 0
[2]; [13]
  Plant response rating, Rice: 0
[3]; [21]
  Plant response rating, Barnyardgrass: 0
[3]; [12]
  Plant response rating, Barnyardgrass: 0
[3]; [15]
  Plant response rating, Barnyardgrass: 0
[3]; [13]
  Plant response rating, Barnyardgrass: 0
[4]; [21]
  Plant response rating, Sedge, Umbrella: 0
[4]; [12]
  Plant response rating, Sedge, Umbrella: 0
[4]; [15]
  Plant response rating, Sedge, Umbrella: 0
[4]; [13]
  Plant response rating, Sedge, Umbrella: 0
[5]
  Canarygrass plant response rating: 30
[5]; 16 g ai/ha, scale 0 to 100
  Plant response rating, Canarygrass: 90
[5]; 31 g ai/ha, scale 0 to 100
  Plant response rating, Canarygrass: 90
[5]; [16]
  Plant response rating, Canarygrass: 100
[6]; [17]
  Plant response rating, Crabgrass, Large: 40
[6]; [18]
  Plant response rating, Crabgrass, Large: 100
[6]; [19]
  Plant response rating, Crabgrass, Large: 0
[6]; [20]
  Plant response rating, Crabgrass, Large: 50
[7]; [17]
  Plant response rating, Wheat: 40
[7]; [18]
  Plant response rating, Wheat: 70
[7]; [19]
  Plant response rating, Wheat: 20
[7]; [20]
  Plant response rating, Wheat: 70
[8]; [17]
  Plant response rating, Foxtail, Giant: 50
[8]; [18]
  Plant response rating, Foxtail, Giant: 100
[8]; [19]
  Plant response rating, Foxtail, Giant: 0
[8]; [20]
  Plant response rating, Foxtail, Giant: 30
[9]; [17]
  Plant response rating, Pigweed: 10
[9]; [18]
  Plant response rating, Pigweed: 10
[9]; [19]
  Plant response rating, Pigweed: 0
[9]; [20]
  Plant response rating, Pigweed: 0
[10]; [17]
  Plant response rating, Barnyardgrass: 60
[10]; [18]
  Plant response rating, Barnyardgrass: 100
[10]; [19]
  Plant response rating, Barnyardgrass: 0
[10]; [20]
  Plant response rating, Barnyardgrass: 10
[11]; [17]
  Plant response rating, Corn: 90
[11]; [18]
  Plant response rating, Corn: 100
[11]; [19]
  Plant response rating, Corn: 0
[11]; [20]
  Plant response rating, Corn: 20
